{
  "source": "patent US20250387403A1",
  "about": "“SELECTIVE SIGMA-2 RECEPTOR LIGANDS AS MODULATORS OF TMEM97” (BOARD OF REGENTS, THE UNIVERSITY OF TEXAS SYSTEM, priority 2022, published 2025)",
  "key": {"neurite outgrowth": {"tested_on": "neurite outgrowth", "assay": "Neurite outgrowth", "assay_type": "cell-based"}, "[1]": {"tested_on": "integrated stress response", "assay": "Integrated stress response", "assay_type": "cell-based"}, "[2]": {"tested_on": "spared nerve injury (SNI) model", "assay": "Spared nerve injury (SNI) neuropathic pain model", "assay_type": "in vivo, mice"}},
  "data": [
    {"molecule": "OCCCN1CC[C@@H]2C[C@H]1c1cc(-c3ccc(C(F)(F)F)cc3)ccc12", "note": "[FEM-1689, 3-((1S,5R)-8-(4-(Trifluoromethyl)phenyl)-1,3,4,5-tetrahydro-2H-1,5-methanobenzo[c]azepin-2-yl) propan-1-ol]", "values": [
      {"measurement": "effect on neurite outgrowth", "setting": "neurite outgrowth", "value": "promotes neurite outgrowth"},
      {"measurement": "effect on the integrated stress response", "setting": "[1]", "value": "inhibits the integrated stress response"},
      {"measurement": "analgesic effect after SNI", "setting": "[2]; global σ2R/TMEM97 knockout mouse", "value": "fails to produce an analgesic effect"},
      {"measurement": "mechanical hypersensitivity after SNI", "setting": "[2]; wild-type male and female mice", "value": "reverses mechanical hypersensitivity"}
    ]}
  ]
}
